The clearance is the volume of plasma or blood freed of the substance per unit of time. A lower clearance goes with inefficient removal. As usually defined, the half-life is how long it takes for the measured level to halve. Read a low half-life as fast loss. The term bioavailability denotes the share of a dose that reaches the circulation, judged against a reference dose that is usually intravenous. The pIC50 is −log10 of the IC50, conventionally taken in molar units.

The values below come from US11155523B2, “Biphenyl compound as CCR2/CCR5 receptor antagonist” (Medshine Discovery Inc., priority 2016, dated 2021).

The structures appear in SMILES notation. pIC50: −log10 of the molar value.

Series [1] is described as follows: Comparative pharmacokinetics study in rats. The series is classed as in vivo, SD male rats. The conditions noted are these: rat. The method, then: Experimental Example 2: Comparative Pharmacokinetics Study in Rats
SD male rats were used as the test animals in this study. The drug concentrations in plasma of the rats by intravenous or oral administration of test compounds WX017, WX047, WX079, WX088 and reference compound at different time points were quantitatively determined by LC/MS/MS, which were used to evaluate the pharmacokinetic profile of the two test drugs in rats.
A clear solution of the test compound was injected into SD rats via the tail vein (overnight fasting, 7-10 weeks old), and the test compound was orally administered to the SD rats (overnight fasting, 7-10 weeks old). Approximately 200 μL of blood was collected from the jugular vein or tail vein of the animals 0.0833, 0.25, 0.5, 1, 2, 4, 6, 8 and 24 hours after administration, and was placed in an anticoagulant tube containing EDTA-K2. The plasma was collected by centrifugation at 3000 g for 15 minutes at 4° C. The plasma concentration was determined by LC-MS/MS. The pharmacokinetic parameters were calculated by the non-compartment model linear logarithmic trapezoidal method using WinNonlin™ Version 6.3 (Pharsight, Mountain View, Calif.) pharmacokinetic software.

The nature of series [2]: Comparative pharmacokinetics study in cynomolgus monkeys. The series is classed as in vivo. The conditions noted are these: cynomolgus monkey. The source says:
Experimental Example 3: Comparative Pharmacokinetics Study in Cynomolgus Monkeys
Male cynomolgus monkeys were used as the test animals in this study. The drug concentrations in plasma of the cynomolgus monkeys by intravenous or oral administration of test compound WX047 and reference compound at different time points were quantitatively determined by LC/MS/MS, which were used to evaluate the pharmacokinetic profile of the two test drugs in cynomolgus monkeys.
A clear solution of the test compound was injected into cynomolgus monkeys via t the cephalic or saphenous vein (overnight fasting, 2.5-7 kg), and the test compound was intragastrically administered to the cynomolgus monkeys (overnight fasting, 7-10 weeks old). Approximately 400 μL of blood was collected from the peripheral vein of the animals 0.0833, 0.25, 0.5, 1, 2, 4, 6, 8, 12 and 24 hours after administration, and transferred into an commercial centrifuge tube containing EDTA-K2*2H2O anticoagulation. The plasma was collected by centrifugation at 3000 g for 10 minutes at 4° C. The plasma concentration was determined by LC-MS/MS. The pharmacokinetic parameters were calculated by the non-compartment model linear logarithmic trapezoidal method using WinNonlin™ Version 6.3 (Pharsight, Mountain View, Calif.) pharmacokinetic software.

In series [3] the target is T1, CYP1A2 (Homo sapiens, UniProt P05177).
T1 construct: from tissue; host or cells: human liver microsomes
T1 sequence (P05177 1-516): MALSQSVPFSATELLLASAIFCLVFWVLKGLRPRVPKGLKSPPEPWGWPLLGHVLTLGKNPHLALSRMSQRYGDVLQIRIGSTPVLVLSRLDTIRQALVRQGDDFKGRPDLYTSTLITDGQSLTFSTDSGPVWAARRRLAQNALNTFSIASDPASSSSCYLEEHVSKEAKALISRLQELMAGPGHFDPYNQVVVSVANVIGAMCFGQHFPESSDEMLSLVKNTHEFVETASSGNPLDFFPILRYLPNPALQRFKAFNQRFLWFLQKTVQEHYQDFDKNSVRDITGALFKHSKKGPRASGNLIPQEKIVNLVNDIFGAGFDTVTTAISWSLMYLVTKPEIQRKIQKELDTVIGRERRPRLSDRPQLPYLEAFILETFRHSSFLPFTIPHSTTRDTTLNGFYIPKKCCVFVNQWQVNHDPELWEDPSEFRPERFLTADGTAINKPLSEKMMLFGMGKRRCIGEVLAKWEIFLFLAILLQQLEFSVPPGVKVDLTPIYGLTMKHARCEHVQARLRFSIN
The series can be described thus: Inhibition of human liver microsomal CYP1A2 (phenacetin probe). The class given is in vitro ADME. Conditions: human liver microsomes. The method, then:
(§1) Experimental Example 4 Inhibition Effect on the Activity of Human Liver Microsomal Cytochrome P450 Isoezymes (CYP1A2, CYP2C9, CYP2C19, CYP2D6 and CYP3A4)
(§2) A total of 5 specific probe substrates for CYP's five isozymes, Phenacetin (CYP1A2), Diclofenac (CYP2C9), […] (S)-Mephenytoin, CYP2C19), Dextromethorphan (CYP2D6) and Midazolam (CYP3A4) were incubated with human liver microsomes and test compounds, respectively, and reduced nicotinamide adenine dinucleotide phosphate (NADPH) was added to initiate the reaction. After the reaction, the sample was processed and liquid chromatography tandem mass spectrometry (LC-MS/MS) was used to quantitatively detect the […] metabolites produced by the specific substrate, Acetaminophen and 4′-hydroxydiclofenac, 4′-hydroxymephenytoin, Dextrorphan and 1′-hydroxymidazolam, in order to calculate the corresponding half maximal inhibitory concentration (IC50).
Background: Liver microsomes are a subcellular fraction often used to study metabolism.

For series [4], the target named is T2, CYP2C9 (Homo sapiens, UniProt P11712).
T2 construct: from tissue; host or cells: human liver microsomes
T2 sequence (P11712 whole entry): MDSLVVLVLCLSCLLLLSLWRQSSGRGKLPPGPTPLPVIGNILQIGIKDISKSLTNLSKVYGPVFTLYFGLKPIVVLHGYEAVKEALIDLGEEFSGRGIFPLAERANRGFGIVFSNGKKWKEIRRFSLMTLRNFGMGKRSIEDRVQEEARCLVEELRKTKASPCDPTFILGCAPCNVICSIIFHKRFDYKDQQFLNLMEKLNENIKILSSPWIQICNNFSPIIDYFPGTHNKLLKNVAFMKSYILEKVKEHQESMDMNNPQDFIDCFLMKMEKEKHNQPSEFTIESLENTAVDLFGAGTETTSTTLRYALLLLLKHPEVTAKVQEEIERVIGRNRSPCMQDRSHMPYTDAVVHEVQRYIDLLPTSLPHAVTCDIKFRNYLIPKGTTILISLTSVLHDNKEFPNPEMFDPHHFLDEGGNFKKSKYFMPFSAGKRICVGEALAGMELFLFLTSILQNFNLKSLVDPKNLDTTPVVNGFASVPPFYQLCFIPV
The series can be described thus: Inhibition of human liver microsomal CYP2C9 (diclofenac probe). The class given is in vitro ADME. Conditions: human liver microsomes. The method, then: as §1, §2

The target in series [5] is T3, CYP2C19 (Homo sapiens, UniProt P33261).
T3 construct: from tissue; host or cells: human liver microsomes
T3 sequence (P33261 whole entry): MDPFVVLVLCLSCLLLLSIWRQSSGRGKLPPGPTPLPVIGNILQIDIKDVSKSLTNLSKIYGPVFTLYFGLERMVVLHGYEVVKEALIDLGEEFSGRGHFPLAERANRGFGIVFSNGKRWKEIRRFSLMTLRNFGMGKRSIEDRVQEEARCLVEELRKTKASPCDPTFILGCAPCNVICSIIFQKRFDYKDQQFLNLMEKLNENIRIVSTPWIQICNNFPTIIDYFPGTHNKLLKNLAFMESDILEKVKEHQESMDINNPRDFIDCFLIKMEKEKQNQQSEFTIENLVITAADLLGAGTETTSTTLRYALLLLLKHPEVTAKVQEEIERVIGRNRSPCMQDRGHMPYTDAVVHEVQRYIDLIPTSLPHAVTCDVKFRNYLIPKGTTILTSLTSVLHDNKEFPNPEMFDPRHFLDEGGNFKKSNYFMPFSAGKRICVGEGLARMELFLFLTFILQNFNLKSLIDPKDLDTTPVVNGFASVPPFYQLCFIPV
Nature of the series: Inhibition of human liver microsomal CYP2C19 ((S)-mephenytoin probe). The series is classed as in vitro ADME. The conditions noted are these: human liver microsomes. The method, then:
as §1, §2

The target in series [6] is T4, CYP2D6 (Homo sapiens, UniProt P10635).
T4 construct: from tissue; host or cells: human liver microsomes
T4 sequence (P10635 whole entry): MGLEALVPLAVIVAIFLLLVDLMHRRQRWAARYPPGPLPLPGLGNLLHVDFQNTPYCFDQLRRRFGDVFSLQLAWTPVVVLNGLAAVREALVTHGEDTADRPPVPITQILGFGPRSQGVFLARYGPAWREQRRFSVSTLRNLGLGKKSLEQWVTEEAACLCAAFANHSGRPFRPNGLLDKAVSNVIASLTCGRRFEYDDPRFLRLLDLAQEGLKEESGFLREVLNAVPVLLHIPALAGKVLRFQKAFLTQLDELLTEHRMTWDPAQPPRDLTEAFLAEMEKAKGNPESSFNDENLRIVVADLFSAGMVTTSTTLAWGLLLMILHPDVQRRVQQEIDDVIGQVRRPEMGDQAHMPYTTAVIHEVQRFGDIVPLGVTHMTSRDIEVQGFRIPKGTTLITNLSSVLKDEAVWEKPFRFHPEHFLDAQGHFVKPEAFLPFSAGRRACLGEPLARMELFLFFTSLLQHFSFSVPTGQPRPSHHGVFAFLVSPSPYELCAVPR
Nature of the series: Inhibition of human liver microsomal CYP2D6 (dextromethorphan probe). The conditions noted are these: human liver microsomes. The series is classed as in vitro ADME. The method, then:
as §1, §2

Series [7] concerns human liver microsomal cytochrome P450 isoenzymes. Nature of the series: Inhibition of human liver microsomal cytochrome P450 isoenzymes, overall conclusion. The series is classed as in vitro ADME. Conditions: human liver microsomes. The method, then:
as §1, §2

The mark [8] stands for this setting: male, Sprague-Dawley (SD), plasma, intravenous injection 2 mg/kg.
Where [9] appears, read: male, plasma, intravenous injection 1 mg/kg.

For the molecule `CCCCOCCOc1ccc(-c2ccc(OCC)c(/C=C/C(=O)Nc3ccc([S@+]([O-])Cc4c(C)ncn4CC)cc3)c2)cc1` [WX047], the results for the clearance in series [1] (setting [8]) and in series [2] (setting [9]) were 0.52 mL/min/kg and 9.11 mL/min/kg, respectively. In addition, the half-life is 3.06 h in series [1] (setting [8]) and 1.66 h in series [2] (setting [9]). The bioavailability in series [1] (male, Sprague-Dawley (SD), plasma, oral 10 mg/kg vs intravenous 2 mg/kg) worked out at 40.4%; in series [2] (male, plasma, oral 3 mg/kg vs intravenous 1 mg/kg), 38.9%. For the same molecule, the “Area Under a Curve (0-inf)” value in series [1] (intravenous injection 2 mg/kg) was found to be 101.904 µM·h; in series [2] (intravenous injection 1 mg/kg) it was 3.149 µM·h. The results for the “Area Under a Curve (0-inf/0-last)” value in series [1] (oral 10 mg/kg) and in series [2] (oral 3 mg/kg) were 204.785 µM·h and 3.678 µM·h, respectively. The values for the Peak time in series [1] (oral 10 mg/kg) and in series [2] (oral 3 mg/kg) were 5.0 h and 2.0 h, respectively. The “Oral plasma system exposure (AUC0-inf) as multiple of the reference compound” value in series [1] (oral, relative to Cenicriviroc) was found to be 6.4 times; in series [2] (oral, relative to Cenicriviroc), 10.8 times. Further, the “Plasma clearance as percent of that of the reference compound” value in series [1] (relative to Cenicriviroc) is reported as 33%. Besides, the “Bioavailability as multiple of the reference compound” value in series [2] (relative to Cenicriviroc) came to 7.6 times. In addition, the pIC50 in series [3], in series [4], in series [5] and in series [6] was below 4.30 throughout. Moreover, the “Risk of inhibiting isoenzymes of human liver microsomal cytochrome P450 (conclusion in words)” value in series [7] is listed as “no risk on inhibiting five isoenzymes”.
